Read-outs that look alike come from different tables or passages of the source. Bounds are passed on as bounds.

We go through 14 compounds from publication PMC9102847, “7-Aminoalkoxy-Quinazolines from Epigenetic Focused Libraries Are Potent and Selective Inhibitors of DNA Methyltransferase 1” (Molecules, 2022).

Series [1] has as its system H3K9me2 levels in human breast adenocarcinoma (MDA-MB-231) cells. The arrangement: method as in PMID 21780790. Conditions: read-out: potency in reducing H3K9me2 levels; cited from earlier work.
In series [2] the target is T1, DNMT3A (Homo sapiens, UniProt Q9Y6K1).
T1 construct: purchased Reaction Biology Corporation
T1 sequence (Q9Y6K1 whole entry, looked up): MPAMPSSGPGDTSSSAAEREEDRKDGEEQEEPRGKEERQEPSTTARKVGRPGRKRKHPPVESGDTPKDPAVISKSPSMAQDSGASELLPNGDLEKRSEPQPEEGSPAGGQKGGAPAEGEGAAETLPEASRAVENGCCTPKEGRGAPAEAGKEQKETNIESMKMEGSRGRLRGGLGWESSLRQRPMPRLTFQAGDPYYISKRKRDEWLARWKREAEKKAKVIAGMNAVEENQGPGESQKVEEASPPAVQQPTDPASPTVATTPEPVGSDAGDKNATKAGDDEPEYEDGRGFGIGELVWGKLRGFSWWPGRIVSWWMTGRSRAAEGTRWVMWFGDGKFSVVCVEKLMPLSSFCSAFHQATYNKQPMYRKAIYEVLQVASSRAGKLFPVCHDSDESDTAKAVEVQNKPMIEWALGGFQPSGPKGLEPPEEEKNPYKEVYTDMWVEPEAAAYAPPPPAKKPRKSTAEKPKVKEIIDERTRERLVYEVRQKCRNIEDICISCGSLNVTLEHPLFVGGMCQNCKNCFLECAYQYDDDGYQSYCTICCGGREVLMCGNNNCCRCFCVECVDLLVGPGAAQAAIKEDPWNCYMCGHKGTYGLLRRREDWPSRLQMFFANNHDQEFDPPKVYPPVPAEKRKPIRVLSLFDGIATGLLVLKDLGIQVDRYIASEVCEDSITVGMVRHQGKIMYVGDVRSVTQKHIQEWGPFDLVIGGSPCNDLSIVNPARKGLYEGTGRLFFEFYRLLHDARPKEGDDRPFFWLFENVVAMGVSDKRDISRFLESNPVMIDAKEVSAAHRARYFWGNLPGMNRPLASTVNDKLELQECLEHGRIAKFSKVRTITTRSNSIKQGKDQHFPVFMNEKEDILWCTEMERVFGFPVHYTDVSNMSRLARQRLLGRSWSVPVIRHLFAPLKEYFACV
Briefly: HotSpot radioisotope methyltransferase inhibition assay, DNMT3A. It is filed as biochemical. On the procedure: The inhibition of the enzymatic activity of DNMT1, DNMT3A, and DNMT3B was tested using the HotSpotSM platform for methyltransferase assays available at Reaction Biology Corporation. HotSpotSM is a low volume radioisotope-based assay that uses tritium-labeled AdoMet (3H-SAM) as a methyl donor. The three test compounds diluted in dimethyl sulfoxide were added using acoustic technology (Echo550, Labcyte, San Jose, CA, USA) into an enzyme/substrate mixture in the nano-liter range. The corresponding reactions were commenced by adding 3H-SAM and incubated at 30 °C. Total final methylations on the substrate (Poly dI-dC in DNMT1, 3A, and 3B assays) were identified by a filter binding method implemented in Reaction Biology. Data analysis was done with Graphed Prism software (La Jolla, CA, USA) for curve fits. The enzymatic inhibition assays were carried out at 1 μM of SAM. In all assays, SAH was used as a standard positive control. The three compounds were tested first with DNMT1 at one 100 μM concentration in duplicate. […] The research group has recently contracted the screening services of Reaction Biology Corporation to identify a novel DNMTi.

For series [3], the system named is G9a. The arrangement: method as in PMID 21780790. The following applies: enzymatic, in vitro; cited from earlier work.
The subject of series [4] is human breast adenocarcinoma (MDA-MB-231) cells. Also on record: method as in PMID 21780790. Conditions: read-out: cell toxicity EC50; cited from earlier work.
For series [5], the target named is T2, DNMT1 (Homo sapiens, UniProt P26358).
T2 construct: purchased Reaction Biology Corporation
T2 sequence (P26358 whole entry): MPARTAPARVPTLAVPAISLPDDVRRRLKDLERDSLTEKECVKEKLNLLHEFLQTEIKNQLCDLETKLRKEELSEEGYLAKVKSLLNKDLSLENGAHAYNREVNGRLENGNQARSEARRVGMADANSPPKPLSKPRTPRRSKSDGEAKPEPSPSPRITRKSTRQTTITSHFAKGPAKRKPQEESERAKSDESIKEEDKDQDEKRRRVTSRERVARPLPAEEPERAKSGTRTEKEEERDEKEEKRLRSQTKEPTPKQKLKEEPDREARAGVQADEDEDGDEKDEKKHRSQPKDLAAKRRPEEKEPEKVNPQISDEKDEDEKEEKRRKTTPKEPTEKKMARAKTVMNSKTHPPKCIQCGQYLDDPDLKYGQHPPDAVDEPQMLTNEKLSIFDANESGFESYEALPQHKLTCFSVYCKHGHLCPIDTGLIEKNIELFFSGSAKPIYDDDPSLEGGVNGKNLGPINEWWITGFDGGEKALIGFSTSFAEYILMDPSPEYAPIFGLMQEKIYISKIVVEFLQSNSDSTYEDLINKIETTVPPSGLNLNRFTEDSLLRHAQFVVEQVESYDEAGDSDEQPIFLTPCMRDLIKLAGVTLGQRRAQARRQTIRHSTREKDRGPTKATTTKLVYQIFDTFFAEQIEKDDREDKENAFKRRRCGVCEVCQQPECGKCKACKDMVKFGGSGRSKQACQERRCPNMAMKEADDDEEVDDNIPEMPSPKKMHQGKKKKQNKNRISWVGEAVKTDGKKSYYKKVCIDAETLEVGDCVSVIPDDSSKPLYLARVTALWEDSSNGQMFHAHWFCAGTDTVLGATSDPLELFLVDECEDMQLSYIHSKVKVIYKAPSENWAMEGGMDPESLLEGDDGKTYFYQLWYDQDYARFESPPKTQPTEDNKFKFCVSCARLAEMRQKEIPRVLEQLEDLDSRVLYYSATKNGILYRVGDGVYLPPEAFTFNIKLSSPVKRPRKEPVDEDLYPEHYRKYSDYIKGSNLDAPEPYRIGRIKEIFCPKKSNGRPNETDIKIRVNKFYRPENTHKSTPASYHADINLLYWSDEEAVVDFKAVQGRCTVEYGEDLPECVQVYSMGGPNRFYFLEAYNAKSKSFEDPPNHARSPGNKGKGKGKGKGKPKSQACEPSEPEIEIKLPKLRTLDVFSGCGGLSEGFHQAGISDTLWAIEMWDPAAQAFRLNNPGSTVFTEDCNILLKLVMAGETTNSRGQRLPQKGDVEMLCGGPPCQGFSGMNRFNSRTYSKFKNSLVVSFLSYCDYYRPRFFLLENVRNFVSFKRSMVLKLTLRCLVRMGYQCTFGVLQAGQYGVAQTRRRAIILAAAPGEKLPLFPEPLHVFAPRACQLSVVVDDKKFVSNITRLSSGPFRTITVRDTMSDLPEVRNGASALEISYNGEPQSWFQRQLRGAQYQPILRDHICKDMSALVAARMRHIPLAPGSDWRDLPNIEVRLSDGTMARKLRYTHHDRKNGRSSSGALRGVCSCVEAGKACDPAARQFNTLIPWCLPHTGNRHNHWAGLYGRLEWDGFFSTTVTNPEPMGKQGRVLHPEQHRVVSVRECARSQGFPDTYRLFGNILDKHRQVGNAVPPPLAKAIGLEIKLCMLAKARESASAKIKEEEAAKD
Briefly: HotSpot radioisotope methyltransferase inhibition assay, DNMT1. Format: biochemical. Conditions: for relative enzymatic activity of DNMT1 as percentages: 100 μM compound, mean of two measurements ± standard deviation; for IC50: 10-concentration IC50, 1 μM SAM, mean of two measurements; for DNMT1: % inhibition / inhibition at 100 µM: single concentration 100 µM, duplicate, 1 μM SAM.

In series [6] the target is T3, DNMT3B (Homo sapiens, UniProt Q9UBC3).
T3 construct: purchased Reaction Biology Corporation
Briefly: HotSpot radioisotope methyltransferase inhibition assay, DNMT3B. Format: biochemical. The following applies: for inhibition of DNMT3B (in words): enzymatic inhibition assays.

Series [7] deals with T2, DNMT1. Also on record: method as in PMID 29953809. Conditions: Figure 1, activity as available in the literature; cited from earlier work.
Series [8] addresses T3, DNMT3B. Also on record: method as in PMID 34790902. Conditions: Pappalardi et al.; cited from earlier work.
For series [9], the system named is G9a. Conditions: Figure 1, activity as available in the literature; cited from earlier work.
For series [10], the target named is T1, DNMT3A. The arrangement: method as in PMID 34790902. Conditions: Pappalardi et al.; cited from earlier work.
The test system of the next series is DNMT3B/3L. Also on record: method as in PMID 29953809. Conditions: Figure 1, activity as available in the literature; cited from earlier work.
The subject of another series is DNMT3A/3L. Also on record: method as in PMID 29953809. Conditions: Figure 1, activity as available in the literature; cited from earlier work.
Series [11] has as its system human acute myeloid leukemia xenograft. The arrangement: method as in PMID 29953809. Conditions: human acute myeloid leukemia xenograft in a mouse model; cited from earlier work. (In general: A xenograft is tissue or cells of one species grown in another, often human tumour cells in immunodeficient mice.)
Series [12] concerns the target T3, DNMT3B. The arrangement: method as in PMID 29953809. Conditions: Figure 1, activity as available in the literature; cited from earlier work.

Usually EC50 stands for the concentration that produces a half-maximal response. A word on the inhibition: it is the percentage by which the read-out fell short of the control. A higher inhibition goes with strong suppression. For `COc1cc2c(NC3CCN(C4CCCCC4)CC3)nc(N3CCCN(C(C)C)CC3)nc2cc1OCCCN1CCCCC1` [compound 12], the IC50 in series [1] was 26 nM; on DNMT3A [2], 4.87 µM; in the series on G9a [3], 6 nM; against DNMT1 [5], 30 nM; on DNMT3B [6] (read-out: DNMT3B IC50), over 100 µM. The EC50 in series [4] is 3.3 µM. Further, the “relative enzymatic activity of DNMT1 as percentages” value on DNMT1 [5] turned out to be 0.3 ± 0.10%. The “DNMT1: % inhibition” value at DNMT1 [5] is recorded as 99.7%. Besides, on DNMT1 [5], the inhibition at 100 µM is over 99%. Also, the “inhibition of DNMT3B (in words)” value against DNMT3B [6] is recorded as “none of them inhibited”.

Consider `COc1cc2nc(N3CCCN(C)CC3)nc(NC3CCN(Cc4ccccc4)CC3)c2cc1OC` [compound 9], for which the IC50 on DNMT1 [7] was over 10 µM.

In the case of `Cc1cc(Nc2ccc(NC(=O)c3ccc(Nc4ccnc5ccccc45)cc3)cc2)nc(N)n1` [compound 3], the IC50 on DNMT3B [8] was 7 µM; in the series on G9a [9], over 10 µM.

On to `CCc1c(C#N)c(SC(C(N)=O)c2ccccc2)nc(N2CCC(N)CC2)c1C#N` (stereo not drawn) [compound 5], for which the “inhibition of DNMT3A (in words)” value at DNMT3A [10] is on record as “did not inhibit”. In addition, the “inhibition of DNMT3B (in words)” value on DNMT3B [8] is recorded as “did not inhibit”. In addition, the IC50 with DNMT3B/3L and with DNMT3A/3L was over 100 µM throughout.

Consider `COc1cc2c(Nc3ccc(NC(=O)c4ccccc4)cc3)ncnc2cc1OCCCN1CCOCC1` [compound 14], for which, on DNMT1 [5], the “relative enzymatic activity of DNMT1 as percentages” value is 92.6 ± 2.40% and the inhibition at 100 µM is 7.4%.

Regarding `COc1cc2c(NC3CCN(C)CC3)cc(-c3ccc(C)o3)nc2cc1OCCCN1CCCC1` [compound 8], the tumor growth inhibition in series [11] was 70%.

In the case of `COc1cc2c(NC3CCN(CC4CCCCC4)CC3)nc(N3CCCN(C(C)C)CC3)nc2cc1OCCCN1CCCCC1` [compound 13], the IC50 was 25 nM in series [1]; 14.7 µM on DNMT3A [2]; 4 nM in the series on G9a [3]; 81 nM on DNMT1 [5]; over 100 µM at DNMT3B [6] (read-out: DNMT3B IC50). In addition, the half-maximal effective concentration (EC50) in series [4] is 2.8 µM. The “relative enzymatic activity of DNMT1 as percentages” value on DNMT1 [5] is 0.7 ± 0.02%. The “DNMT1: % inhibition” value on DNMT1 [5] was found to be 99.3%. For the same compound, the inhibition at 100 µM on DNMT1 [5] was over 99%. Besides, on DNMT3B [6], the “inhibition of DNMT3B (in words)” value is listed as “none of them inhibited”.

Take `C[C@@H]1O[C@@H](CC(=O)O)CC2=C1C(=O)c1c(O)cccc1C2=O` [compound 6, nanaomycin A]: the IC50 at DNMT1 [7] was over 10 µM.

As to `COc1ccc(Cl)cc1C(=O)NCCc1ccc(S(=O)(=O)NC(=O)NC2CCCCC2)cc1` [compound 4, Glyburide], the IC50 on DNMT3B [12] is over 100 µM.

`Nc1ncn([C@@H]2O[C@H](CO)[C@@H](O)[C@H]2O)c(=O)n1` [compound 1, 5-azacitidine]: the IC50 with G9a [9] is over 10 µM.

Consider `Nc1ncn([C@H]2C[C@H](O)[C@@H](CO)O2)c(=O)n1` [compound 2, 5-aza-2′-deoxycytidine], for which, in the series on G9a [9], the IC50 was over 10 µM.

On to `Nc1ncnc2c1ncn2[C@@H]1O[C@H](CSCC[C@H](N)C(=O)O)[C@@H](O)[C@H]1O` [SAH, S-adenosyl-L-homocysteine], for which the IC50 against DNMT3A [2] is 0.1 µM; at DNMT3B [8], 0.09 µM; against DNMT3B [6], 0.03 µM.

Consider `COc1cc2c(NC3CCN(C(C)C)CC3)cc(C3CCCCC3)nc2cc1OCCCN1CCCC1` [compound 7], for which the IC50 in the series with G9a [9] was 0.0007 µM.

For the compound `COc1cc2c(NC3CCN(C(C)C)CC3)nc(N3CCC(F)(F)CC3)nc2cc1OCCCN1CCCC1` [compound 11], the IC50 at DNMT1 [7] was over 50 µM.
